# Reference: ChEMBL document CHEMBL3085643, “Synthesis and evaluation in monkey of [(18)F]4-fluoro-N-methyl-N-(4-(6-(methylamino)pyrimidin-4-yl)thiazol-2-yl)benzamide ([(18)F]FIMX): a promising radioligand for PET imaging of brain metabotropic glutamate receptor 1 (mGluR1)” (J Med Chem, 2013)
# Experiments:
# [1] = Binding affinity to human sigma-2 receptor by PDSP assay
# [2] = biological target: Sigma non-opioid intracellular receptor 1 (Homo sapiens, UniProt Q99720); test: Binding affinity to human sigma-1 receptor by PDSP assay
# Sequence of Sigma non-opioid intracellular receptor 1 (Q99720 whole entry): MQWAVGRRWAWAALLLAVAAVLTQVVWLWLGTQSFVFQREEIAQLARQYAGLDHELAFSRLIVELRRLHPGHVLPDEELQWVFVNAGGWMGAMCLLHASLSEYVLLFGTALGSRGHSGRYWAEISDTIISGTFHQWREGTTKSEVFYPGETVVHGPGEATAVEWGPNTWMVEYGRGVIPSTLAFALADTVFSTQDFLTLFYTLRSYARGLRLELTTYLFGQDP
# [3] = biological target: Translocator protein (Homo sapiens, UniProt P30536); test: Binding affinity to human TSPO receptor by PDSP assay
# [4] = biological target: Sodium-dependent serotonin transporter (Homo sapiens, UniProt P31645); test: Binding affinity to human SERT by PDSP assay
# Sequence of Sodium-dependent serotonin transporter (P31645 whole entry): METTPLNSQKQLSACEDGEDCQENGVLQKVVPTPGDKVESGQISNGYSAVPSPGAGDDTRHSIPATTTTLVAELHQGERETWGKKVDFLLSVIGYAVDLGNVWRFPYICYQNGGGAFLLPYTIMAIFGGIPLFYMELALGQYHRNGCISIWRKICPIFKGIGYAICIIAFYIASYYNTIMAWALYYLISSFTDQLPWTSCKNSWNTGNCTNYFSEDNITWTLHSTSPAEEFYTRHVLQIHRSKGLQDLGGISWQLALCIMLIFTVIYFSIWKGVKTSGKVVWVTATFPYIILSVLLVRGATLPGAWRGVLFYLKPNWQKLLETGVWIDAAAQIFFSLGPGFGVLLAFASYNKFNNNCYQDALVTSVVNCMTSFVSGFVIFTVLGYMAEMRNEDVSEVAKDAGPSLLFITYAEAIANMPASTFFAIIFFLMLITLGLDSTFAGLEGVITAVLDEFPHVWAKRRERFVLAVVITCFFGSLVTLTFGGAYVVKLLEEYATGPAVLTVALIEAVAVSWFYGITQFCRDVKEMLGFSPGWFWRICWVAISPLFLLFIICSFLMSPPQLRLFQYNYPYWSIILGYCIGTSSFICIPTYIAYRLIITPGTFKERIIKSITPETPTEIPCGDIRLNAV
# [5] = biological target: Glutamate [NMDA] receptor; test: Binding affinity to human NMDA receptor by PDSP assay
# [6] = biological target: Sodium-dependent noradrenaline transporter (Homo sapiens, UniProt P23975); test: Binding affinity to human NET by PDSP assay
# [7] = biological target: Mu-type opioid receptor (Homo sapiens, UniProt P35372); test: Binding affinity to human mu opioid receptor by PDSP assay
# Sequence of Mu-type opioid receptor (P35372 whole entry): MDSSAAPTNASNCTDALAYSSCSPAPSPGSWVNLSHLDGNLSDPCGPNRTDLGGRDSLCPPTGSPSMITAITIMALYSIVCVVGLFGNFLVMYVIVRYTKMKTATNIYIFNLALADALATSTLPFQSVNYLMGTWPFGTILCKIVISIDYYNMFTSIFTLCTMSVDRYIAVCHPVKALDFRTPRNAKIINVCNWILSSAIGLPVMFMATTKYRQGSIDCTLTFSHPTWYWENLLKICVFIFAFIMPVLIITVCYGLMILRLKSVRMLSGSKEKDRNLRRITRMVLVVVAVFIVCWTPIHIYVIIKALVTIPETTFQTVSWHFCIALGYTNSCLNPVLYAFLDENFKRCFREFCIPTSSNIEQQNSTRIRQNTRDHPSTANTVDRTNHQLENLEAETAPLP
# [8] = biological target: Muscarinic acetylcholine receptor M4 (Homo sapiens, UniProt P08173); test: Binding affinity to human muscarinic M4 receptor by PDSP assay
# Sequence of Muscarinic acetylcholine receptor M4 (P08173 whole entry): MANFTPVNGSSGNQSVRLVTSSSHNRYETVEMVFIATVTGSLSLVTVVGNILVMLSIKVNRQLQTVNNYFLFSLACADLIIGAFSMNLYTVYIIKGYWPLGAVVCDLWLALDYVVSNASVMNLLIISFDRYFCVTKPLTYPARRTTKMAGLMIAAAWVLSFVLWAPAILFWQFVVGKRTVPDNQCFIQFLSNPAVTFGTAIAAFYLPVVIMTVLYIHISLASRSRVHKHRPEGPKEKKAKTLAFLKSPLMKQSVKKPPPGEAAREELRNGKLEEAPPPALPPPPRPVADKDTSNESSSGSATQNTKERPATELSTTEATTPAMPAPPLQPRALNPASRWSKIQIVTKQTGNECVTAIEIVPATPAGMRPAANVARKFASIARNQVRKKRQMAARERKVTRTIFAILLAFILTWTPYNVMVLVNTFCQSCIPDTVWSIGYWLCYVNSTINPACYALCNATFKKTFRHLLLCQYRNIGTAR
# [9] = biological target: Muscarinic acetylcholine receptor M5 (Homo sapiens, UniProt P08912); test: Binding affinity to human muscarinic M5 receptor by PDSP assay
# [10] = biological target: Muscarinic acetylcholine receptor M3 (Homo sapiens, UniProt P20309); test: Binding affinity to human muscarinic M3 receptor by PDSP assay
# [11] = biological target: Muscarinic acetylcholine receptor M2 (Homo sapiens, UniProt P08172); test: Binding affinity to human muscarinic M2 receptor by PDSP assay
# [12] = biological target: Muscarinic acetylcholine receptor M1 (Homo sapiens, UniProt P11229); test: Binding affinity to human muscarinic M1 receptor by PDSP assay
# [13] = biological target: Kappa-type opioid receptor (Homo sapiens, UniProt P41145); test: Binding affinity to human kappa opioid receptor by PDSP assay
# [14] = biological target: Histamine H3 receptor (Homo sapiens, UniProt Q9Y5N1); test: Binding affinity to human histamine H3 receptor by PDSP assay
# [15] = biological target: Histamine H1 receptor (Homo sapiens, UniProt P35367); test: Binding affinity to human histamine H1 receptor by PDSP assay
# [16] = biological target: GABA-A receptor; agonist GABA site; test: Binding affinity to human GABAA receptor by PDSP assay; assay type: protein-complex assay
# [17] = biological target: Delta-type opioid receptor (Homo sapiens, UniProt P41143); test: Binding affinity to human delta opioid receptor by PDSP assay
# [18] = biological target: D(1B) dopamine receptor (Homo sapiens, UniProt P21918); test: Binding affinity to human dopamine D5 receptor by PDSP assay
# [19] = biological target: D(4) dopamine receptor (Homo sapiens, UniProt P21917); test: Binding affinity to human dopamine D4 receptor by PDSP assay
# [20] = biological target: D(3) dopamine receptor (Homo sapiens, UniProt P35462); test: Binding affinity to human dopamine D3 receptor by PDSP assay
# [21] = biological target: D(2) dopamine receptor (Homo sapiens, UniProt P14416); test: Binding affinity to human dopamine D2 receptor by PDSP assay
# [22] = biological target: D(1A) dopamine receptor (Homo sapiens, UniProt P21728); test: Binding affinity to human dopamine D1 receptor by PDSP assay
# [23] = Binding affinity to BZP site in rat brain by PDSP assay; assay type: tissue-based
# [24] = biological target: Beta-3 adrenergic receptor (Homo sapiens, UniProt P13945); test: Binding affinity to human beta3 adrenergic receptor by PDSP assay
# [25] = biological target: Beta-2 adrenergic receptor (Homo sapiens, UniProt P07550); test: Binding affinity to human beta2 adrenergic receptor by PDSP assay
# [26] = biological target: Beta-1 adrenergic receptor (Homo sapiens, UniProt P08588); test: Binding affinity to human beta1 adrenergic receptor by PDSP assay
# [27] = biological target: Alpha-2C adrenergic receptor (Homo sapiens, UniProt P18825); test: Binding affinity to human alpha-2C adrenergic receptor by PDSP assay
# [28] = biological target: Alpha-2B adrenergic receptor (Homo sapiens, UniProt P18089); test: Binding affinity to human alpha-2B adrenergic receptor by PDSP assay
# [29] = biological target: Alpha-1D adrenergic receptor (Homo sapiens, UniProt P25100); test: Binding affinity to human alpha-1D adrenergic receptor by PDSP assay
# Sequence of Alpha-1D adrenergic receptor (P25100 whole entry): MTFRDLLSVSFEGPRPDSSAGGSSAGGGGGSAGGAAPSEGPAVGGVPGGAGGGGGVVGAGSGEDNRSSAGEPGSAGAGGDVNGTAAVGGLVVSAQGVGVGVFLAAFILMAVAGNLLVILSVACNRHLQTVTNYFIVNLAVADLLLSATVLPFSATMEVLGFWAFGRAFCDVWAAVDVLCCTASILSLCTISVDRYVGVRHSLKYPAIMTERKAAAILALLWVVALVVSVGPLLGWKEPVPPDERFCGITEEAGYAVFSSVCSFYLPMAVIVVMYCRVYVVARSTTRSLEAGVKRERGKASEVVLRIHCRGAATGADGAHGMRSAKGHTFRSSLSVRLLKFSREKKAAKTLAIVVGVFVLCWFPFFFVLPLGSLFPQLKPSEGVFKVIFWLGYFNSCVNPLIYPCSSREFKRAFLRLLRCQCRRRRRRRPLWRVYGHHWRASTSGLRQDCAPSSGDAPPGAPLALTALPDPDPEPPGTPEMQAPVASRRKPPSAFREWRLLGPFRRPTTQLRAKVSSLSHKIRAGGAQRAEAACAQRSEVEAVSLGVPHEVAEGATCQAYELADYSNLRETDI
# [30] = biological target: Alpha-2A adrenergic receptor (Homo sapiens, UniProt P08913); test: Binding affinity to human alpha-2A adrenergic receptor by PDSP assay
# Sequence of Alpha-2A adrenergic receptor (P08913 whole entry): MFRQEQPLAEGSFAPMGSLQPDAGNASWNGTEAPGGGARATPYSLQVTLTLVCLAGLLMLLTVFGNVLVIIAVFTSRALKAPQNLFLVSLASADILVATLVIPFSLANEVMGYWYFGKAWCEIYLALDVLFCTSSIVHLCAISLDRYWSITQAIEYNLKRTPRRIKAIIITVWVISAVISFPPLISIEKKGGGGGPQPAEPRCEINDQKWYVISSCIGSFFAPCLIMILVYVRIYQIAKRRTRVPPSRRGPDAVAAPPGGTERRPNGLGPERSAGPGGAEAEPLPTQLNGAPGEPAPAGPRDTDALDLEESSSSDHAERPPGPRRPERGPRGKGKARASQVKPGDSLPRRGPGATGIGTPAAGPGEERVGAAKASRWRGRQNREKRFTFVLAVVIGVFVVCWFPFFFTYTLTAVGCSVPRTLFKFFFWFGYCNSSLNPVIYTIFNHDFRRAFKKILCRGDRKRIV
# [31] = biological target: Alpha-1A adrenergic receptor (Homo sapiens, UniProt P35348); test: Binding affinity to human alpha-1A adrenergic receptor by PDSP assay
# Sequence of Alpha-1A adrenergic receptor (P35348 whole entry): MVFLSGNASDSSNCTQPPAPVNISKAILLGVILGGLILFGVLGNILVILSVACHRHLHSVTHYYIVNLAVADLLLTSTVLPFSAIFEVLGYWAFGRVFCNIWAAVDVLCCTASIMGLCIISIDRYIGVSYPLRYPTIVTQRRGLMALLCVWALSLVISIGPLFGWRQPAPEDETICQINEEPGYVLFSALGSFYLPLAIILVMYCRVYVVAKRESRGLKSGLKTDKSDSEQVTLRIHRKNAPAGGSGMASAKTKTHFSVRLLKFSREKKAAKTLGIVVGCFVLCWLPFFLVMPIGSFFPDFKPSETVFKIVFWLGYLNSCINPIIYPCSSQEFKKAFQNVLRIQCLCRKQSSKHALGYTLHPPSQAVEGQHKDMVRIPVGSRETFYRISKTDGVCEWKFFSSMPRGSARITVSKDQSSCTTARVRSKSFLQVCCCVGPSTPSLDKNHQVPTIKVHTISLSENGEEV
# [32] = biological target: Alpha-1B adrenergic receptor (Homo sapiens, UniProt P35368); test: Binding affinity to human alpha-1B adrenergic receptor by PDSP assay
# Sequence of Alpha-1B adrenergic receptor (P35368 whole entry): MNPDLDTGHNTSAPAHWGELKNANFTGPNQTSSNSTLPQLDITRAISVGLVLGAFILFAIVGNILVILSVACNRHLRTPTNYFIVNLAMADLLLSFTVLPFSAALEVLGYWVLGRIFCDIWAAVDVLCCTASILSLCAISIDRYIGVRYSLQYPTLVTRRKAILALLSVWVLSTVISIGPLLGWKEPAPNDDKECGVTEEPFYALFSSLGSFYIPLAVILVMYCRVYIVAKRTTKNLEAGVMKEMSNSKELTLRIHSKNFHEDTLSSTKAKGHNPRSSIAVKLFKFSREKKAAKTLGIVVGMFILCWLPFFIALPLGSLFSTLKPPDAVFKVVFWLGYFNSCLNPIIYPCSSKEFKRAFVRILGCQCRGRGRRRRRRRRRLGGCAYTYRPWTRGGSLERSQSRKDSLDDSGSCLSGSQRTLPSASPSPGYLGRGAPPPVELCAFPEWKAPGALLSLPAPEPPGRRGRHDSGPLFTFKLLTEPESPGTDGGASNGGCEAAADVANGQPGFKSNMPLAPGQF
# [33] = biological target: 5-hydroxytryptamine receptor 7 (Homo sapiens, UniProt P34969); test: Binding affinity to human 5-HT7 receptor by PDSP assay
# [34] = biological target: 5-hydroxytryptamine receptor 6 (Homo sapiens, UniProt P50406); test: Binding affinity to human 5-HT6 receptor by PDSP assay
# [35] = biological target: 5-hydroxytryptamine receptor 5A (Homo sapiens, UniProt P47898); test: Binding affinity to human 5-HT5A receptor by PDSP assay
# Sequence of 5-hydroxytryptamine receptor 5A (P47898 whole entry): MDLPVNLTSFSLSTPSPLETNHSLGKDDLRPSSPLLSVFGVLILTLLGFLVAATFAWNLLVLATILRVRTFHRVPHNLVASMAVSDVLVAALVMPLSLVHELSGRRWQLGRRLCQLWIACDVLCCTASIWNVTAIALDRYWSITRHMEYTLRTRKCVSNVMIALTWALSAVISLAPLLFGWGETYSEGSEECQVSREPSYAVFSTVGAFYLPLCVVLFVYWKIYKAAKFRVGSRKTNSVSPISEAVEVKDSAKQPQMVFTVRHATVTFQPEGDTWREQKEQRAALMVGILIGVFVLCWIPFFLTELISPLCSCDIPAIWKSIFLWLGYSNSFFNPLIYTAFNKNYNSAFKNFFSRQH
# [36] = biological target: 5-hydroxytryptamine receptor 3A (Homo sapiens, UniProt P46098); test: Binding affinity to human 5-HT3 receptor by PDSP assay
# [37] = biological target: 5-hydroxytryptamine receptor 2C (Homo sapiens, UniProt P28335); test: Binding affinity to human 5-HT2C receptor by PDSP assay
# Sequence of 5-hydroxytryptamine receptor 2C (P28335 whole entry): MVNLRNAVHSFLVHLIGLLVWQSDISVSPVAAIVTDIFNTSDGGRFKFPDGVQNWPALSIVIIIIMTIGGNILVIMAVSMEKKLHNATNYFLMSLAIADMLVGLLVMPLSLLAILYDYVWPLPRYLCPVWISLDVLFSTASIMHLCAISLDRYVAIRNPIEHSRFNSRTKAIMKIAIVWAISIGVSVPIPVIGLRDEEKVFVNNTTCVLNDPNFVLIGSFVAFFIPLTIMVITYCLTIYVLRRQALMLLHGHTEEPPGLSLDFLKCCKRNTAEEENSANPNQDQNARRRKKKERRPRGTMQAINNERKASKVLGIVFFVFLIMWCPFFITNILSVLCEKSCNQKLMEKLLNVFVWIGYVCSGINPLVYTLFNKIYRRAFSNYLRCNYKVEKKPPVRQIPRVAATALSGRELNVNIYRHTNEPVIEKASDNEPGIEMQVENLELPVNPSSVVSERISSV
# [38] = biological target: 5-hydroxytryptamine receptor 2B (Homo sapiens, UniProt P41595); test: Binding affinity to human 5-HT2B receptor by PDSP assay
# [39] = biological target: 5-hydroxytryptamine receptor 1E (Homo sapiens, UniProt P28566); test: Binding affinity to human 5-HT1E receptor by PDSP assay
# [40] = biological target: 5-hydroxytryptamine receptor 1D (Homo sapiens, UniProt P28221); test: Binding affinity to human 5-HT1D receptor by PDSP assay
# [41] = biological target: 5-hydroxytryptamine receptor 1B (Homo sapiens, UniProt P28222); test: Binding affinity to human 5-HT1B receptor by PDSP assay
# Sequence of 5-hydroxytryptamine receptor 1B (P28222 whole entry): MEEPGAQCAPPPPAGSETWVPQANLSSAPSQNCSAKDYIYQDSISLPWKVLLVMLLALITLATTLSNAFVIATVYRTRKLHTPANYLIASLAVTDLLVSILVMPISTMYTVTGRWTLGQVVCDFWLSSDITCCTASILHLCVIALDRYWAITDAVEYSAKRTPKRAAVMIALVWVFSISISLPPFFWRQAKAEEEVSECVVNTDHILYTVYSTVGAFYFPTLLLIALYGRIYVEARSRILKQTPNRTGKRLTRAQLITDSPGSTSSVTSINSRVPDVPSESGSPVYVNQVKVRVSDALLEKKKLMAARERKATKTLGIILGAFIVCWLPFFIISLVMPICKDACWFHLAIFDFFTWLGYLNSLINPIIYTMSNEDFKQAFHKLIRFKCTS
# [42] = biological target: 5-hydroxytryptamine receptor 1A (Homo sapiens, UniProt P08908); test: Binding affinity to human 5-HT1A receptor by PDSP assay
# [43] = biological target: Metabotropic glutamate receptor 5 (Homo sapiens, UniProt P41594); test: Binding affinity to human mGluR5 by PDSP assay
# [44] = biological target: Metabotropic glutamate receptor 5 (Rattus norvegicus, UniProt P31424); test: Binding affinity to mGluR5 in rat brain; assay type: tissue-based
smiles,measurement,setting,value
CNc1cc(-c2csc(N(C)C(=O)c3ccc(F)cc3)n2)ncn1,Ki,[1],> 10 µM
same,Ki,[2],> 10 µM
same,Ki,[3],> 10 µM
same,Ki,[4],> 10 µM
same,Ki,[5],> 10 µM
same,Ki,[6],> 10 µM
same,Ki,[7],> 10 µM
same,Ki,[8],> 10 µM
same,Ki,[9],> 10 µM
same,Ki,[10],> 10 µM
same,Ki,[11],> 10 µM
same,Ki,[12],> 10 µM
same,Ki,[13],> 10 µM
same,Ki,[14],> 10 µM
same,Ki,[15],> 10 µM
same,Ki,[16],> 10 µM
same,Ki,[17],> 10 µM
same,Ki,[18],> 10 µM
same,Ki,[19],> 10 µM
same,Ki,[20],> 10 µM
same,Ki,[21],> 10 µM
same,Ki,[22],> 10 µM
same,Ki,[23],> 10 µM
same,Ki,[24],> 10 µM
same,Ki,[25],> 10 µM
same,Ki,[26],> 10 µM
same,Ki,[27],> 10 µM
same,Ki,[28],> 10 µM
same,Ki,[29],> 10 µM
same,Ki,[30],> 10 µM
same,Ki,[31],> 10 µM
same,Ki,[32],> 10 µM
same,Ki,[33],> 10 µM
same,Ki,[34],> 10 µM
same,Ki,[35],> 10 µM
same,Ki,[36],> 10 µM
same,Ki,[37],> 10 µM
same,Ki,[38],> 10 µM
same,Ki,[39],> 10 µM
same,Ki,[40],> 10 µM
same,Ki,[41],> 10 µM
same,Ki,[42],> 10 µM
same,Ki,[43],7.9 µM
same,Ki,[44],2100 nM
